The structures appear in SMILES notation. pEC50, pKd: −log10 of the molar value. Calls of active or inactive are those of the source. The calls are words filed in the database; no cut-off is given here. A value given as a limit tells only on which side of the number the result lay.

From ChEMBL document CHEMBL4602637, “Synthesis and biological evaluation of novel pyrazolo[1,5-a]pyrimidines: Discovery of a selective inhibitor of JAK1 JH2 pseudokinase and VPS34” (Bioorg Med Chem Lett, 2020) come the findings set out here.

In experiment [1] the test system is A2780. As to the kind of experiment: Antimitotic activity against human A2780 cells by ATP lite luminescence assay. In kind it is functional, cell-based.
For experiment [2], the system named is A2780. Put plainly: Antimitotic activity against human A2780 cells at 10 uM by ATP lite luminescence assay. In kind it is functional, cell-based.
Experiment [3] concerns MCF7. As to the kind of experiment: Antimitotic activity against human MCF7 cells by ATP lite luminescence assay. The format is functional, cell-based.
Experiment [4] deals with A2780. Put plainly: Ratio of EC50 for dorsomorphin to EC50 for test compound for antimitotic activity against human A2780 cells by ATP lite luminescence assay. The format is functional.
Experiment [5] relates to MCF7. As to the kind of experiment: Ratio of EC50 for dorsomorphin to EC50 for test compound for antimitotic activity against human MCF7 cells by ATP lite luminescence assay. In kind it is functional.
Experiment [6] concerns the target T1, Tyrosine-protein kinase JAK1 (Homo sapiens, UniProt P23458). Put plainly: Binding affinity to wild-type human partial length JAK1 JH2 pseudokinase domain (R537 to D855 residues) expressed in mammalian expression system at 10 uM by Kinomescan method relative to control.
The species entered for a further experiment is Homo sapiens. As to the kind of experiment: Ratio for inhibition of wild-type human partial length TYK2 JH2 pseudokinase domain (G556 to D888 residues) expressed in mammalian expression system at 10 uM by Kinomescan method relative to control to inhibition of wild-type human partial length JAK1 JH2 pseudokinase domain (R537 to D855 residues) expressed in mammalian expression system at 10 uM by Kinomescan method relative to control.

Experiment [7] addresses Non-receptor tyrosine-protein kinase TYK2 (Homo sapiens) (UniProt P29597). Put plainly: Inhibition of wild-type human partial length TYK2 JH2 pseudokinase domain (G556 to D888 residues) expressed in mammalian expression system assessed as enzyme residual activity at 10 uM by Kinomescan method relative to control.
Experiment [8] has as its target T2, Phosphatidylinositol 3-kinase catalytic subunit type 3 (Homo sapiens, UniProt Q8NEB9). As to the kind of experiment: Binding affinity to wild-type human partial length PIK3C3 (S282 to H879 residues) expressed in mammalian expression system at 10 uM by Kinomescan method relative to control.
The target in experiment [9] is T2, Phosphatidylinositol 3-kinase catalytic subunit type 3. Put plainly: Inhibition of wild-type human partial length PIK3C3 (S282 to H879 residues) expressed in mammalian expression system assessed as enzyme residual activity at 10 uM by Kinomescan method relative to control.
Experiment [10] addresses T3, Ephrin type-B receptor 6 (Homo sapiens) (UniProt O15197).
T3 sequence (whole entry): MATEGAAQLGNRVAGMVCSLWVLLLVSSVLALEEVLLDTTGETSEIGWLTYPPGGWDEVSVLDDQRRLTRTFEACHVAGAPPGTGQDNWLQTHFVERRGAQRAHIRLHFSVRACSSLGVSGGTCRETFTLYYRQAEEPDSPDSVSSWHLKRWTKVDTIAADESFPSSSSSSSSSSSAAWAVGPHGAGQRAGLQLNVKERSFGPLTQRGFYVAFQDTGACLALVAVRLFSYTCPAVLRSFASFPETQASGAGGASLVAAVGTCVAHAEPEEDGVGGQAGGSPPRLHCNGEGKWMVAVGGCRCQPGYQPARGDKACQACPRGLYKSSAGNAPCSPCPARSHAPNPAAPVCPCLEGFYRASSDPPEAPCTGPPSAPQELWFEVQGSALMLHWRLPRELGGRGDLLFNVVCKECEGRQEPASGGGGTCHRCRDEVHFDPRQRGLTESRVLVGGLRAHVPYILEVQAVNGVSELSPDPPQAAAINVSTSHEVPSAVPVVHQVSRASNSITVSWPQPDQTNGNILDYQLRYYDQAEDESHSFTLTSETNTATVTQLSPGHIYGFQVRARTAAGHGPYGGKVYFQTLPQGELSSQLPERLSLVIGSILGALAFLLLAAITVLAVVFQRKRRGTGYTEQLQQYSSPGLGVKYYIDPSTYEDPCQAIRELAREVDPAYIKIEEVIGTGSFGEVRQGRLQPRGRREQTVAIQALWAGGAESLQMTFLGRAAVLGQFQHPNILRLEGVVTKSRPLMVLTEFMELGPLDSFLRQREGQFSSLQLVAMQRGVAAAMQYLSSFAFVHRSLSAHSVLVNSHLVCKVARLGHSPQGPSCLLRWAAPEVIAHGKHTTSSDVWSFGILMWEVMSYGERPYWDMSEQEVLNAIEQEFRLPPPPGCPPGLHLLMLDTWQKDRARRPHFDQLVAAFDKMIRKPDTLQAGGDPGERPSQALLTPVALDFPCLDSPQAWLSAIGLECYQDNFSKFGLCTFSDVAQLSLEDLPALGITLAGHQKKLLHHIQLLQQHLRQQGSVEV
Put plainly: Inhibition of wild-type human partial length EPHB6 (Q634 to P948 residues) expressed in mammalian expression system assessed as enzyme residual activity at 10 uM by Kinomescan method relative to control.

For experiment [11], the target named is T4, Dual specificity mitogen-activated protein kinase kinase 5 (Homo sapiens) (UniProt Q13163).
T4 sequence (whole entry): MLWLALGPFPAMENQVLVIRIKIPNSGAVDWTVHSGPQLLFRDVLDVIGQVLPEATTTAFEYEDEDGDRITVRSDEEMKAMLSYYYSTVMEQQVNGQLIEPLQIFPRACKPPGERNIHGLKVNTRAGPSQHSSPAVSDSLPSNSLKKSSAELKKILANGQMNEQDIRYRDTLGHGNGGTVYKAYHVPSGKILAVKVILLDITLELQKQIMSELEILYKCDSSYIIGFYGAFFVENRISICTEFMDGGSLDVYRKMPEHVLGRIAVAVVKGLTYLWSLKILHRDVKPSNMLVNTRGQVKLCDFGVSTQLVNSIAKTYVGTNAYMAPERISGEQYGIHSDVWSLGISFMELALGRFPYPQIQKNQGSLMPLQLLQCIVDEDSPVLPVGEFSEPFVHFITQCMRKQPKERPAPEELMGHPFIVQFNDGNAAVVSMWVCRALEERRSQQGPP
Put plainly: Inhibition of wild-type human partial length MEK5 (L98 to P448 residues) expressed in mammalian expression system assessed as enzyme residual activity at 10 uM by Kinomescan method relative to control.

In experiment [12] the target is T1, Tyrosine-protein kinase JAK1. Put plainly: Inhibition of wild-type human partial length JAK1 JH2 pseudokinase domain (R537 to D855 residues) expressed in mammalian expression system assessed as enzyme residual activity at 10 uM by Kinomescan method relative to control.

T1 sequence (P23458 whole entry, the tested form may be a part): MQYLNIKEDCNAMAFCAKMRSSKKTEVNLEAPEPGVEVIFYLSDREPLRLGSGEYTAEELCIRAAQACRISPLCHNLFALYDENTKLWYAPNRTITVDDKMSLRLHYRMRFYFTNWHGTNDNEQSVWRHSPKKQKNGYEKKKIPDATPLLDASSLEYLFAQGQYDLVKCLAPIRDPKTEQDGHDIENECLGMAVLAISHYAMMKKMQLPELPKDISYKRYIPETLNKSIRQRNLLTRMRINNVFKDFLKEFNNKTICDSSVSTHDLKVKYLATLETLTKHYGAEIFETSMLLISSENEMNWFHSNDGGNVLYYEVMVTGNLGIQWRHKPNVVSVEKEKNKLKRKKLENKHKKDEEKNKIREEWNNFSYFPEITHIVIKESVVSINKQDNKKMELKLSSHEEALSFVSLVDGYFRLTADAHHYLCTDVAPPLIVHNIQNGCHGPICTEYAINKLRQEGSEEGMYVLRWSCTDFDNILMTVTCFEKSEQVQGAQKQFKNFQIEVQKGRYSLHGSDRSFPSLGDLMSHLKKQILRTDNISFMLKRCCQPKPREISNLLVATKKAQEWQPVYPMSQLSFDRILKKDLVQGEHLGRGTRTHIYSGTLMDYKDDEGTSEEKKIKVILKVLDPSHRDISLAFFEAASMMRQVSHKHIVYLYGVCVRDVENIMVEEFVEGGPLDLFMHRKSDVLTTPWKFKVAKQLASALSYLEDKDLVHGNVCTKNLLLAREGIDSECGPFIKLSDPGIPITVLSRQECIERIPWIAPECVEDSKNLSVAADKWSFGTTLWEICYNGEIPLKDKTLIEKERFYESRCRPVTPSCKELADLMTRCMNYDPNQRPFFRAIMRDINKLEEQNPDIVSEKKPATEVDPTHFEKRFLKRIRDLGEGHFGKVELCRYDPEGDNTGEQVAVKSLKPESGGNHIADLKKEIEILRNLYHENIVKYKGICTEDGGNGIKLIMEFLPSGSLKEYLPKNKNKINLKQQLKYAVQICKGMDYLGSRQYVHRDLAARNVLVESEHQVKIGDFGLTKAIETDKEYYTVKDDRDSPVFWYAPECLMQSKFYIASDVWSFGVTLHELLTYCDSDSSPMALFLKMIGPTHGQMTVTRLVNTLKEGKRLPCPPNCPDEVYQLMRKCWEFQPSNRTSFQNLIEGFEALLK
T2 sequence (Q8NEB9 whole entry, the tested form may be a part): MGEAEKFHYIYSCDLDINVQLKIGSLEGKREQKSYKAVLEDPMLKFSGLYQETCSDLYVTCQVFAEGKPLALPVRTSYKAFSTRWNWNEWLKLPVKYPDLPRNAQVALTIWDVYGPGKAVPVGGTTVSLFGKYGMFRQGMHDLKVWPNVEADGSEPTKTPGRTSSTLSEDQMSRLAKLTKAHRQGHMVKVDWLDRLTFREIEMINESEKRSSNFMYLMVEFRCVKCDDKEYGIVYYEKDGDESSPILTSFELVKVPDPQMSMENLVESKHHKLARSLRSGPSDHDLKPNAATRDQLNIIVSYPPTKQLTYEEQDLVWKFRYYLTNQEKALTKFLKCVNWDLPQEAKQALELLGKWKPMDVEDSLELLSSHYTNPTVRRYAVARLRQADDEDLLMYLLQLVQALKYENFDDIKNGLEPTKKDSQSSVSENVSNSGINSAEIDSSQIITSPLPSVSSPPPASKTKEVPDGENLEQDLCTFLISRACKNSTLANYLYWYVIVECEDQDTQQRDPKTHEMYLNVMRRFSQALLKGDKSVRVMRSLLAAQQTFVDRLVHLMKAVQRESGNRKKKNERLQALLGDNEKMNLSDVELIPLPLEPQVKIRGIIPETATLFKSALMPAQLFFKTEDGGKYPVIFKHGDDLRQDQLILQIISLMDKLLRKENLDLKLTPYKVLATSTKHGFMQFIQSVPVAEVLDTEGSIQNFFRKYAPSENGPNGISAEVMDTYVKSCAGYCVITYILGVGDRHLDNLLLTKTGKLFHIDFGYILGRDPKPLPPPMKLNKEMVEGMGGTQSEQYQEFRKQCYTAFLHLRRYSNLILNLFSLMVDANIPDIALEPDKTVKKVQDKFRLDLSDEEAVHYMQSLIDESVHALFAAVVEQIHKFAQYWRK
Sequence of Non-receptor tyrosine-protein kinase TYK2 (Homo sapiens) (P29597 whole entry, the tested form may be a part): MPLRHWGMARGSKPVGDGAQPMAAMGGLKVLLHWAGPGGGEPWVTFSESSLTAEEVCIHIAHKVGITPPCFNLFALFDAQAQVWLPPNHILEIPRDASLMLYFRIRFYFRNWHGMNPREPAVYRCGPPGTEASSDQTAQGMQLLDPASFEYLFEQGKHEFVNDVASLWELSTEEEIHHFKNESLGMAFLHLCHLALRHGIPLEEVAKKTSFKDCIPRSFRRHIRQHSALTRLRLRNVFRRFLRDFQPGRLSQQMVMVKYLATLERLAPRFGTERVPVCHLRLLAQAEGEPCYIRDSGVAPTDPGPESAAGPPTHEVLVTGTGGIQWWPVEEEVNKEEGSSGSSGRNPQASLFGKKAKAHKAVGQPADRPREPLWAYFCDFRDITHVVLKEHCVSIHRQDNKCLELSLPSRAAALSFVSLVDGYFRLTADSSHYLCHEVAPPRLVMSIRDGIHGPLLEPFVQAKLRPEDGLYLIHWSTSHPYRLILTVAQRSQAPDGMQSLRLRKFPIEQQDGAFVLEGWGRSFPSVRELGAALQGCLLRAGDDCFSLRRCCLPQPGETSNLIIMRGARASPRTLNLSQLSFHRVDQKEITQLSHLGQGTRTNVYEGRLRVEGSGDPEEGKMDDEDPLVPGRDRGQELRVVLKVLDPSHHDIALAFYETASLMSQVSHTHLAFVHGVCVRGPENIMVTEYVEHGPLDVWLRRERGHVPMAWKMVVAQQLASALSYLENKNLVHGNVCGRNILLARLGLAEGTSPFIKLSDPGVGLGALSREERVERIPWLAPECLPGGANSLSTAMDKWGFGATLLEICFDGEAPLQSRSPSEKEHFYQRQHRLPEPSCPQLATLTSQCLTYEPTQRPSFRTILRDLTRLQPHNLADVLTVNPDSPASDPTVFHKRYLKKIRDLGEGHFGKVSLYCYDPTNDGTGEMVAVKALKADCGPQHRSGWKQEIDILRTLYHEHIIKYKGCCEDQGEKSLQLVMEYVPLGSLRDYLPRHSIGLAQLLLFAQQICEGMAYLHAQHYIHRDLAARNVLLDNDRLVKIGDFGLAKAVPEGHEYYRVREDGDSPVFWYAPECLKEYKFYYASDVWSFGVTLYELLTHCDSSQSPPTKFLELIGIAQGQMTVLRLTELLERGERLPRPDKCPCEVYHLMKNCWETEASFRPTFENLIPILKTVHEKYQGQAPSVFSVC

What is called pEC50 is the EC50 on a negative log10 scale, so that one unit is a factor of ten. A higher pEC50 goes with a low EC50. On to `Fc1ccc(-c2cnn3cc(-c4ccc(OCCN5CCCCC5)cc4)cnc23)cc1`, for which the pEC50 in the experiment on A2780 [1] was 6.03; in the experiment on MCF7 [3] it was 5.44. Further, the result in the experiment on A2780 [2] was Active.
For the compound `c1cc(-c2cnn3cc(-c4ccc(OCCN5CCCCC5)cc4)cnc23)ccn1` [DORSOMORPHIN], the pEC50 with A2780 [1] was 5.96 to 6.05; with MCF7 [3], 5.31.
`FC(F)(F)c1ccc(-c2cnn3cc(-c4ccc(OCCN5CCCCC5)cc4)cnc23)cc1`: the pEC50 was 5.64 with A2780 [1] and 5.80 with MCF7 [3]. Further, the outcome with A2780 [2] was Active.
The compound `CN1CCN(CCOc2ccc(-c3cnc4c(-c5cccc(F)c5)cnn4c3)cc2)CC1` gave a pEC50 in the experiment with A2780 [1] of 6.02. The result in the experiment on A2780 [2] was Active.
As for `Fc1cccc(-c2cnn3cc(-c4ccc(OCCN5CCCCC5)cc4)cnc23)c1F`, the pEC50 in the experiment on A2780 [1] is 5.85; in the experiment with MCF7 [3] it was 5.37. In addition, the result with A2780 [2] was Active.
As to `CN1CCN(CCOc2ccc(-c3cnc4c(-c5ccccc5F)cnn4c3)cc2)CC1`, the “Ratio EC50” value is recorded as 2 with A2780 [4] and 3 with MCF7 [5]. This compound also gave a pEC50 with A2780 [1] of 6.28. Besides, the outcome in the experiment with A2780 [2] was Active.
Turning to `CN1CCN(CCOc2ccc(-c3cnc4c(-c5ccc(C(F)(F)F)cc5)cnn4c3)cc2)CC1`, the pEC50 in the experiment on A2780 [1] was 5.54. Also, in the experiment on A2780 [2], the result was Active.
Consider `Fc1ccccc1-c1cnn2cc(-c3ccc(OCCN4CCCCC4)cc3)cnc12`, for which the pEC50 in the experiment on A2780 [1] was 5.57; in the experiment with MCF7 [3], 5.55. Further, in the experiment on A2780 [2], the result was Active.
Take `CN1CCN(CCOc2ccc(-c3cnc4c(-c5cccc(F)c5F)cnn4c3)cc2)CC1`: in the experiment on A2780 [1], the pEC50 is 6.08. Further, the result in the experiment on A2780 [2] was Active.
On to `CN1CCN(CCOc2ccc(-c3cnc4c(-c5ccc(F)cc5)cnn4c3)cc2)CC1`, for which the pEC50 with A2780 [1] was 5.96. Besides, in the experiment with A2780 [2], the outcome was Active.
As a reminder, the pKd is the negative decadic logarithm of the Kd, by convention in mol/L. `c1ccc2sc(-c3cnn4cccnc34)nc2c1`: the values for the pKd in experiment [6] and in [8] were 6.26 and 6.39, respectively. Besides, in the experiment filed under Homo sapiens, the Ratio worked out at 6. Further, the Activity in [7] amounted to 5%; in experiment [9], 0.9%; in experiment [10], 9.9%; in experiment [11], 3.9%; in experiment [12] it was 0.8%. The compound further showed a pEC50 in the experiment on A2780 [1] of 6.05. Also, the outcome in the experiment with A2780 [2] was Active.
Consider `Fc1cccc(-c2cnn3cc(-c4ccc(OCCN5CCCCC5)cc4)cnc23)c1`, for which the Activity is less than 10% in experiment [7], 100% in experiment [9], less than 10% in experiment [10] and 41% in experiment [12]. In addition, the values for the pEC50 in the experiment with A2780 [1] and in the experiment with MCF7 [3] were 5.92 and 5.66, respectively. In the experiment on A2780 [2], the outcome was Active.
